Experimental data taken from patent US20230391774A1, “Novel Compounds” (AC Immune SA, priority 2020, published 2023).
“Also recorded” adds a separate entry of the source. Where a name gives a salt, the structure may show the parent alone.

Tests used:
[1] = biological target: T1, Tau K18 fragment aggregates (amino acids 244 to 372 of human Tau441) (Homo sapiens, UniProt P10636); assay: Tau K18 disaggregation assay by ThT; type: biochemical; conditions: ThT fluorescence; 2 μM K18 aggregates, 30 minutes at RT
T1 construct: encompassing amino acids 244 to 372 of the longest isoform (2N4R) of human Tau441; purchased Biotechne; host or cells: bacteria
Procedure: Tau K18 Disaggregation Assay by ThT
The Tau K18 fragment, encompassing amino acids 244 to 372 of the longest isoform (2N4R) of human Tau441, was expressed in bacteria and purified (Biotechne). For the K18 disaggregation assay by ThT, 35 μM of recombinant K18 in PBS were aggregated for 24 hours at 37° C. in presence of 25 μM of heparin (Sigma-Aldrich) and 10 mM of 1,4-Dithiothreito (DTT from Sigma-Aldrich) under shaking at 750 RPM. Compound 1 was dissolved in anhydrous dimethyl sulfoxide (DMSO, Sigma-Aldrich) to reach a concentration of 10 mM. K18 aggregates and serial dilutions of compounds were mixed together in PBS (volume 50 μL) to a final concentration of 2 μM of K18 aggregates and from 400 to 0.1 μM of Compound 1. The mixture was incubated for 30 minutes at room temperature (RT), then 40 μL of this mixture were transferred into a black 384-well plate assay (Perkin-Elmer) and mixed with 10 μL of 100 μM ThT in 250 mM glycine (both from Sigma-Aldrich) in PBS. Fluorescence (relative fluorescence units; RFU) was measured in monoplicate or duplicate on a Tecan reader (excitation: 440 nm; emission: 485 nm). Percentage of K18 disaggregation was then calculated and half maximal effective concentration (EC50) was determined using GraphPad Prism version 8 (GraphPad Software) assuming a one-binding site fitting model, see Table 3 and Table 4.

[2] = biological target: T2, flTau aggregates (longest isoform of human Tau, 2N4R) (Homo sapiens, UniProt P10636); assay: Full-length Tau (flTau) disaggregation assay by Thioflavin T (ThT); type: biochemical; conditions: ThT fluorescence; 60 nM flTau aggregates, 30 minutes at RT; read-out: flTau disaggregation EC50
T2 construct: 35 μM of recombinant full-length (fl) Tau in phosphate-buffered saline (PBS) were aggregated; purchased Biotechne; host or cells: bacteria
Summary of the method: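 Recombinant 2N4R Tau (35 μM) pre-aggregated 72 h at 37 °C with 35 μM heparin and 10 mM DTT under shaking. Aggregates (60 nM final) incubated 30 min at RT in PBS with compound (20–0.0012 μM), then ThT added; fluorescence read at ex 440/em 485 nm and EC50 fitted to one-site model.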

[3] = tested on: misfolded Tau in SH-SY5Y cell line overexpressing full-length human Tau P301L; assay: Reduction of intracellular misfolded Tau; type: cell-based; conditions: 20 nM, 72 hours, differentiated P301L SH-SY5Y cells, MC1 antibody, vs DMSO control
Procedure: The SH-SY5Y cell line overexpressing the full-length form of human Tau carrying the P301L mutation were cultured in complete medium DMEM-F12 4.5 g/L Glutamax (Invitrogen), 15% FBS (Biochrom), 1% Peni/Strep (Invitrogen) supplemented with 2.5 μg/ml of G418 (Sigma-Aldrich) selection antibiotic. For the in vitro differentiation from neuroblastoma cells to neurons, cells were plated in 24-well plates (Costar 3337) on glass coverslips coated with Poly-D-Lysine at a seeding density of 2.5×10^3 cells. P301L SH-SY5Y cells were differentiated for 1 week at 37° C. in culture medium in presence of 10 μM retinoic acid (RA; Sigma, R2625). Every 48-72 h media was changed and fresh retinoic acid was added. For the treatment with compound 1, were dispensed on the cells at concentrations between 1-20 nM for 72 hours, with changing compounds every 24 h. After the incubation with Compound 1, cells were pre-fixed with 2% PFA for 5 min followed by a 15 min fixation with 4% PFA. […] Permeabilized fixed cells were then incubated overnight in 10% NGS/0.25% Triton X-100 in PBS with monoclonal anti-mouse MC1 antibody detected misfolded Tau (provided by Prof. Peter Davies, Albert Einstein College of Medicine, New York, USA) and polyclonal anti-rabbit total Tau (Abcam; ab64193) both diluted 1:1000.

[4] = tested on: rTg4510 mice; assay: In vivo efficacy: aggregated Tau in cortical total brain homogenate (AlphaLISA); conditions: 100 mg/kg bi-daily by gavage for 4 weeks
From the text: In Vivo Efficacy of the Compounds of the Present Invention
Double transgenic rTg4510 mice express the full-length human Tau carrying the P301L mutation (Tau4RON-P301L) under the control of the tet-inducible (or tetracycline-inducible system) CaMKII promoter (Ramsden et al., J. Neurosci., 2005·25(46):10637-10647). Single transgenic mice expressing only the tetracycline-controlled transactivator (tTA) were used as genotype controls. The study comprised 4 treatment groups (n=15 female for tTa group and n=33 female mice/group for the treatment) with the following group distribution (see Table 5). Mice were distributed over 5 cohorts and cages were composed with an average of 3 mice per cage. Compounds or vehicle control were administered bi-daily by gavage for 4 weeks starting at the age of 5 months. […]
To prepare cortical total brain homogenates (Cx-TBH), frozen brains were resuspended in 9 volumes/weight of ice-cold homogenization buffer [25 mM Tris-HCl pH 7.4, 150 mM NaCl, 1 mM EDTA, 1 mM EGTA containing phosphatase inhibitors (30 mM NaF, 0.2 mM Na3VO4, 1 nM Okadaic acid, 1 mM PMSF, 5 mM Na4P2O7) and protease inhibitor cocktail (Complete™, Roche)] and homogenized in Eppendorf tubes with a VWR pellet mixer (47747-370). […] Aggregated Tau in total cortical homogenate was quantified using the following antibody pairs: HT7-Acceptor beads+biotin (BT)-HT7-donor beads. […]

[5] = tested on: rTg4510 mice; assay: In vivo efficacy: NFTs and neuroinflammation markers by immunohistochemistry; conditions: 100 mg/kg, immunohistochemistry (data not shown)
From the text: Double transgenic rTg4510 mice express the full-length human Tau carrying the P301L mutation (Tau4RON-P301L) under the control of the tet-inducible (or tetracycline-inducible system) CaMKII promoter (Ramsden et al., J. Neurosci., 2005·25(46):10637-10647). Single transgenic mice expressing only the tetracycline-controlled transactivator (tTA) were used as genotype controls. The study comprised 4 treatment groups (n=15 female for tTa group and n=33 female mice/group for the treatment) with the following group distribution (see Table 5). Mice were distributed over 5 cohorts and cages were composed with an average of 3 mice per cage. Compounds or vehicle control were administered bi-daily by gavage for 4 weeks starting at the age of 5 months.
After incubation of this mixture at room temperature for 1 hour, 25 μL of Streptavidin Donor beads (Perkin Elmer) at 25 μg/mL were added in the dark. Plates were analyzed after 30 minutes incubation using the EnSpire Alpha instrument and EnSpire Workstation version 3.00.

T2 sequence (P10636 1-441 isoform P10636-8): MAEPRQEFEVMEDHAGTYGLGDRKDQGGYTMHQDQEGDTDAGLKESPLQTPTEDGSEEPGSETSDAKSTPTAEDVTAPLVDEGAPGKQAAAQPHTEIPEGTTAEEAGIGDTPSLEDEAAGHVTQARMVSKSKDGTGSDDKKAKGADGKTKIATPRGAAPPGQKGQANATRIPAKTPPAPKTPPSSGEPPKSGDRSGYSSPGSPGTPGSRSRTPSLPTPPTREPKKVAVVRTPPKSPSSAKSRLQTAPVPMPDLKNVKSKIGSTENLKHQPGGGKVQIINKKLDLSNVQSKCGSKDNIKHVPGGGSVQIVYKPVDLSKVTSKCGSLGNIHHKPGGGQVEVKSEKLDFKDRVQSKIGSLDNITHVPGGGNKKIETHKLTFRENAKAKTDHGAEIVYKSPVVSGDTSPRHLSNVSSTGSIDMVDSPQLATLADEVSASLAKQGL
T1 sequence (P10636 561-689): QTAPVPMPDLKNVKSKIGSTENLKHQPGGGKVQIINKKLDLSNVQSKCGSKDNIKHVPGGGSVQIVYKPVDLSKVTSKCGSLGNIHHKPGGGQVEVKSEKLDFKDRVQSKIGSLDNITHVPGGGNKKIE

| Compound | EC50 [1] [µM] | EC50 [2] [µM] | Reduction of intracellular misfolded Tau [3] | aggregated Tau in Cortical Total brain homogenate (Cx-TBH) ([4]; 100 mg/kg) | aggregated Tau in Cortical Total brain homogenate (Cx-TBH) ([4]; listed as Compound 1, 100 mg/kg) | NeuroFibrillary Tangles (NFTs) [5] | neuroinflammation marker CD68 [5] | neuroinflammation marker Iba1 [5] |
| --- | --- | --- | --- | --- | --- | --- | --- | --- |
| c1ccc2c(C3CCN(c4ccc5oc(N6CCOCC6)nc5c4)CC3)n[nH]c2c1 [Example 1, 5-(4-(1H-indazol-3-yl)piperidin-1-yl)-2-morpholinobenzo[d]oxazole] | < 1 | < 1 | Reduction of intracellular misfolded Tau; also recorded: significantly different from DMSO control | significantly decreased | decreased of aggregated Tau | significant decrease | significant decrease | significant decrease |
| COc1ccc2c(C3CCN(c4ccc5oc(N6CCOCC6)nc5c4)CC3)c[nH]c2n1 [Example 104, 5-(4-(6-methoxy-1H-pyrrolo[2,3-b]pyridin-3-yl)piperidin-1-yl)-2-morpholinobenzo[d]oxazole] | 1 to 10 | 1 to 10 | – | – | – | – | – | – |
| c1ccc2c(Nc3ccc4oc(N5CCOCC5)nc4c3)n[nH]c2c1 [Example 36, N-(1H-indazol-3-yl)-2-morpholinobenzo[d]oxazol-5-amine] | 10 to 50 | 1 to 10 | – | – | – | – | – | – |
| c1ccc2c(C3CCN(c4ccc5oc(N6CCOCC6)nc5c4)CC3)c[nH]c2c1 [Example 19, 5-(4-(1H-indol-3-yl)piperidin-1-yl)-2-morpholinobenzo[d]oxazole] | 1 to 10 | 1 to 10 | – | – | – | – | – | – |

Further lines, with some results ahead:

| EC50 [1] [µM] | EC50 [2] [µM] | Compound | Reduction of intracellular misfolded Tau [3] | aggregated Tau in Cortical Total brain homogenate (Cx-TBH) ([4]; 100 mg/kg) | aggregated Tau in Cortical Total brain homogenate (Cx-TBH) ([4]; listed as Compound 1, 100 mg/kg) | NeuroFibrillary Tangles (NFTs) [5] | neuroinflammation marker CD68 [5] | neuroinflammation marker Iba1 [5] |
| --- | --- | --- | --- | --- | --- | --- | --- | --- |
| 1 to 10 | 1 to 10 | Cn1cc(C#Cc2ccc3oc(N4CCOCC4)nc3c2)c2cc(F)cnc21 [Example 46, 5-((5-fluoro-1-methyl-1H-pyrrolo[2,3-b]pyridin-3-yl)ethynyl)-2-morpholinobenzo[d]oxazole] | – | – | – | – | – | – |
| 10 to 50 | 1 to 10 | Cn1cc(C2CCN(c3cc4sc(N5CCOCC5)nc4cn3)CC2)c2cc(F)cnc21 [Example 110, 4-(6-(4-(5-fluoro-1-methyl-1H-pyrrolo[2,3-b]pyridin-3-yl)piperidin-1-yl)thiazolo[4,5-c]pyridin-2-yl)morpholine hydrochloride] | – | – | – | – | – | – |
| 1 to 10 | 1 to 10 | c1ccc2c(C3CCN(c4cc5sc(N6CCOCC6)nc5cn4)CC3)n[nH]c2c1 [Example 35, 4-(6-(4-(1H-indazol-3-yl)piperidin-1-yl)thiazolo[4,5-c]pyridin-2-yl)morpholine] | – | – | – | – | – | – |
